Assay results: patent US11548893B2 (priority 2017, dated 2023)

Assays:
[1] = tested on: EBOV (mucin-deleted glycoprotein, VSV pseudotype); assay: microbe, parasite or virus in culture; format: cell-based, Zaire ebolavirus; details: Zaire ebolavirus, Vero, 24 h, read-out: EC50 Pseudotype Assays EBOV
[2] = tested on: SUDV (glycoprotein, VSV pseudotype); assay: microbe, parasite or virus in culture; format: cell-based, Sudan ebolavirus; details: Vesicular stomatitis virus, Vero, 24 h, read-out: EC50 Pseudotype Assays SUDV
[3] = tested on: BDBV (mucin-deleted glycoprotein, VSV pseudotype); assay: microbe, parasite or virus in culture; format: cell-based, Bundibugyo ebolavirus; details: Vesicular stomatitis virus, Vero, 24 h, read-out: EC50 Pseudotype Assays BDBV
in vitro = details: African green monkey, Cytotox CC50

Compound	EC50 [1]	EC50 [2]	EC50 [3]	CC50 (in vitro)
CCC12CC3CC(C(=O)N4CC[C@H](N)[C@@H](F)C4)(C1)CC(c1ccccc1)(C3)C2 (mixture of isomers) [Example A24]	0.203 µM	0.31 µM	0.253 µM	11.2 µM
CCC12CC3CC(C(=O)NC4CCC5(CC4)CNC5)(C1)CC(c1ccccc1)(C3)C2 (racemic) [Example A27]	0.134 µM	1.75 µM	0.567 µM	7.9 µM
CCOCC12CC3CC(C(=O)N[C@H]4CC[C@@H](N)CC4)(C1)CC(c1ccccc1)(C3)C2 (mixture of isomers) [Example A29]	0.062 µM	> 1 µM	0.79 µM	16.3 µM
CC12CC3CC(C(=O)N4CCCNCC4)(C1)CC(c1ccccc1)(C3)C2 (racemic) [Example A34]	0.09 µM	0.18 µM	0.12 µM	23.7 µM
CCC1CNCCN1C(=O)C12CC3CC(C)(C1)CC(c1ccccc1)(C3)C2 (racemic) [Example A36]	0.171 µM	0.13 µM	0.229 µM	8.31 µM
CC1(N)CCN(C(=O)C23CC4CC(C)(C2)CC(c2ccccc2)(C4)C3)CC1 (racemic) [Example A37]	0.058 µM	0.22 µM	0.0587 µM	10.9 µM
CC1CN(C(=O)C23CC4CC(C)(C2)CC(c2ccccc2)(C4)C3)CCC1N (racemic) [Example A39]	0.046 µM	0.21 µM	0.091 µM	13.2 µM
CC1CC(N)CCN1C(=O)C12CC3CC(C)(C1)CC(c1ccccc1)(C3)C2 (racemic) [Example A40]	0.069 µM	0.45 µM	0.165 µM	24.6 µM
CC12CC3CC(C(=O)N4CCC5(CC5N)C4)(C1)CC(c1ccccc1)(C3)C2 (racemic) [Example A41]	0.153 µM	0.68 µM	0.209 µM	27.7 µM
CC12CC3CC(C(=O)N4C5CCC4CC(N)C5)(C1)CC(c1ccccc1)(C3)C2 (racemic) [Example A42]	0.033 µM	0.46 µM	0.19 µM	11.8 µM
CC12CC3CC(C(=O)N4CCCC(N)CC4)(C1)CC(c1ccccc1)(C3)C2 (racemic) [Example A43]	0.147 µM	0.37 µM	0.126 µM	13 µM
CC12CC3CC(C(=O)N4CCC5(CCN5)CC4)(C1)CC(c1ccccc1)(C3)C2 (racemic) [Example A51]	0.157 µM	0.52 µM	0.228 µM	–
N#CC12CC3CC(C(=O)N[C@H]4CC[C@H](N)CC4)(C1)CC(c1ccccc1)(C3)C2 (mixture of isomers) [Example A53]	0.67 µM	> 1 µM	> 1 µM	–
c1ccc(C23CC4CC(CC(CN5CCNCC5)(C4)C2)C3)cc1 [Example A67]	> 1 µM	> 1 µM	> 1 µM	–
CC1(C)CN(CC23CC4C[C@@](C)(C2)C[C@](c2ccccc2)(C4)C3)CC[C@@H]1N [Example B70]	0.628 µM	1.02 µM	0.93 µM	–
CC1(C)CN(CC23CC4C[C@@](C)(C2)C[C@](c2ccccc2)(C4)C3)CC[C@H]1N [Example B71]	1.18 µM	> 1 µM	1.03 µM	–
C[C@@]12CC3CC(C(=O)N4CCC(N)C5(CC5)C4)(C1)C[C@](c1ccccc1)(C3)C2 (some centres unmarked) [Example C9]	0.269 µM	0.62 µM	0.15 µM	–
C[C@@]12CC3CC(C(=O)N4CC5(CC(N)C5)C4)(C1)C[C@](c1ccccc1)(C3)C2 [Example C11]	0.576 µM	0.96 µM	0.315 µM	–
CC1(C)CN(CC23CC4C[C@](C)(C2)C[C@@](c2ccccc2)(C4)C3)CC[C@@H]1N [Example C70]	> 1 µM	1.28 µM	1.02 µM	–
CC1(C)CN(CC23CC4C[C@](C)(C2)C[C@@](c2ccccc2)(C4)C3)CC[C@H]1N [Example C71]	> 1 µM	> 1 µM	> 1 µM	–
